Data: PMC12072186, “A Novel Small Molecule Enhances Stable Dopamine Delivery to the Brain in Models of Parkinson’s Disease” (International Journal of Molecular Sciences, 2025)

Legend:
human alpha-synuclein = experiment: Western blot of soluble brain extracts for alpha-synuclein; assay type: in vivo, mouse; conditions: young TgA53T mice (6–7 months old), vs D5 and DMSO
Method: The concentration of CNS alpha-synuclein via ELISA was reduced in the brain lysates of old (11–12-month-old) TgA53T mice treated with Pegasus compared to DMSO-treated controls (Figure 5I).
To extract the soluble proteins, whole brain tissues, which excluded the olfactory bulb, cerebellum, and spinal cord, were isolated and homogenized in 1 × STEN buffer (50 mM Tris (pH 7.6), 150 mM NaCl, 2 mM EDTA, 0.2% NP-40, 0.2% BSA, 20 mM PMSF, and protease cocktail inhibitor). The proteins were quantified and normalized for WB (and ELISA) on 4–12% Criterion™ XT Bis-Tris Protein Gel (Cat No: 3450125, Bio-rad, Hercules, CA, USA). Beta-actin (β-actin) was probed (1:3000) with monoclonal antibody (Cat No: MAB1501R, Emdmillipore, Danvers, MA, USA). Human alpha-synuclein was probed (1:4000) with monoclonal antibody (Cat No: AHB0261, Thermo Fisher, Waltham, MA, USA). Human oligomeric alpha-synuclein was probed (1:500) with anti-alpha-synuclein oligomer-specific syn33 antibody (Cat No: ABN2265, Sigma-Aldrich, St. Louis, MO, USA). WBs were quantified by densitometry using Quantity One 4.6.3 software (Bio Rad, Hercules, CA, USA) and Image J version 1.54m.

[1] = tested on: tyrosine hydroxylase (TH+)-positive neurons; experiment: Tyrosine hydroxylase immunohistochemistry (DAB staining); assay type: in vivo, mouse; conditions: vs DMSO
Method: To further examine whether Pegasus has any effects on DA-producing neurons, we performed immunohistochemistry to visualize tyrosine hydroxylase (TH+)-positive neurons in both the SN and striatum in Pegasus-treated versus untreated mice. TH is a rate-limiting enzyme in the biosynthesis of DA in the brain. We used DAB staining to highlight the TH+ neurons.
(§1) Animals were deeply anesthetized with a mixture of Xylazine and Ketamine (8:80 mg/kg), washed with normal saline for 1 min, and then perfused with 4% paraformaldehyde (PFA) for 15 min. The brains were dissected out and immediately stored in 4% PFA for 24 h at 4 °C, and then transferred to 30% sucrose at 4 °C for 48 h. The brains were cut using a cryostat microtome into 20 µm thick coronal sections and stored at −20 °C. Staining for tyrosine hydroxylase (TH) was probed with anti-tyrosine hydroxylase antibody (Cat No: AB152, Sigma-Aldrich, St. Louis, MO, USA). GFAP (glial fibrillary acidic protein) was stained with anti-GFAP monoclonal antibody (Cat No:MS1376P1, Fisher Scientific, Newington, NH, USA). […] TH^+ cells were counted in a stereology-like manner across multiple visual fields (typically 20 fields) in a single animal, and the same procedure was repeated on several animals to obtain the best approximation of TH staining.

astrocyte (GFAP) = experiment: GFAP immunohistochemistry of astrocytes; assay type: in vivo, mouse
Method: Neuroinflammation is one of the most important pathogeneses in PD in addition to alpha-synuclein aggregation. To examine the effects of Pegasus on glial cell activation, we performed immunohistochemistry of astrocyte and microglia from the brains of treated vs. untreated young (6–7-month-old) and old (12–13-month-old) TgA53T mice.
as §1

alpha-synuclein = tested on: alpha-synuclein; design: method as in PMID 38991155; conditions: cited from earlier work

C[C@H]1c2ccc(NC(=O)CCC(=O)NCCc3ccc(O)c(O)c3)c(O)c2C(=O)C2=C(O)[C@]3(O)C(=O)C(C(N)=O)=C(O)CC3[C@@H](O)C21 (stereo partly shown) [Pegasus]
Monomeric alpha-synuclein level (WB) (human alpha-synuclein): significant decreases | Oligomeric alpha-synuclein level (WB) (human alpha-synuclein): significant decreases | Cell count of TH+ neurons in the SN ([1]; young (6–7-month-old) and old (12–13-month-old) TgA53T mice): dramatically increases the cell count | DA nerve terminals (TH+) in the striatum ([1]; young and old TgA53T mice): dramatically increases | GFAP staining in other brain regions (astrocyte (GFAP); including the SN and cortex): not appreciably different | GFAP astrocyte reactivity in the hippocampus (astrocyte (GFAP); young (6–7-month-old) TgA53T mice, 50 mg/kg i.p., vs DMSO): significant reduction in astrocyte reactivity | Protective effect on alpha-synuclein in vitro (alpha-synuclein): prevention of alpha-synuclein misfolding
